Test system: 377384-186-R-J1-PDC complex spheroid viability
Assay: Anticancer human tumor 377384-186-R-J1-PDC patient-derived pancreatic carcinoma cell line growth inhibition [RAS]
Conditions: for IC50: curve of first compound; for viability, T/C: stronger effect = lower value
How it was run: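 Agents were tested in combination matrices in half-log decrements from a top concentration at or near clinical Cmax (10 microM if undetermined). Targets were multi-cell spheroids of tumour lines plus HUVEC and MSC stromal cells.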
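Note: spheroids exposed to compounds for seven days before readout.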

SMILES: NC1c2ccccc2OC12CCN(c1cnc3c(N4CCCc5ncccc54)n[nH]c3n1)CC2 (configuration not stated) + C#Cc1c(F)ccc2cc(O)cc(-c3ncc4c(N5CC6CCC(C5)N6)nc(OCC56CCCN5CC(F)C6)nc4c3F)c12
- IC50 (second compound 0.0316 µM): < 0.0316 µM
- IC50 (second compound 0.1 µM): < 0.0316 µM
- IC50 (second compound 0.316 µM): < 0.0316 µM
- IC50 (second compound 1 µM): < 0.0316 µM
- IC50 (second compound 3.16 µM): < 0.0316 µM
- IC50 (second compound 10 µM): < 0.0316 µM
- viability, T/C (second compound 0.0316 µM, first compound 0.0316 µM): 2.52%
- viability, T/C (second compound 0.0316 µM, first compound 0.1 µM): 1.69%
- viability, T/C (second compound 0.0316 µM, first compound 0.316 µM): 1.2%
- viability, T/C (second compound 0.0316 µM, first compound 1 µM): 0.72%
- viability, T/C (second compound 0.0316 µM, first compound 3.16 µM): 0.33%
- viability, T/C (second compound 0.0316 µM, first compound 10 µM): 0.32%
- viability, T/C (second compound 0.1 µM, first compound 0.0316 µM): 1.81%
- viability, T/C (second compound 0.1 µM, first compound 0.1 µM): 1.39%
- viability, T/C (second compound 0.1 µM, first compound 0.316 µM): 0.82%
- viability, T/C (second compound 0.1 µM, first compound 1 µM): 0.62%
- viability, T/C (second compound 0.1 µM, first compound 3.16 µM): 0.38%
- viability, T/C (second compound 0.1 µM, first compound 10 µM): 0.25%
- viability, T/C (second compound 0.316 µM, first compound 0.0316 µM): 1.2%
- viability, T/C (second compound 0.316 µM, first compound 0.1 µM): 0.66%
- viability, T/C (second compound 0.316 µM, first compound 0.316 µM): 0.72%
- viability, T/C (second compound 0.316 µM, first compound 1 µM): 0.67%
- viability, T/C (second compound 0.316 µM, first compound 3.16 µM): 0.35%
- viability, T/C (second compound 0.316 µM, first compound 10 µM): 0.35%
- viability, T/C (second compound 1 µM, first compound 0.0316 µM): 1.27%
- viability, T/C (second compound 1 µM, first compound 0.1 µM): 1.46%
- viability, T/C (second compound 1 µM, first compound 0.316 µM): 0.57%
- viability, T/C (second compound 1 µM, first compound 1 µM): 0.5%
- viability, T/C (second compound 1 µM, first compound 3.16 µM): 0.21%
- viability, T/C (second compound 1 µM, first compound 10 µM): 0.22%
- viability, T/C (second compound 3.16 µM, first compound 0.0316 µM): 0.86%
- viability, T/C (second compound 3.16 µM, first compound 0.1 µM): 1.11%
- viability, T/C (second compound 3.16 µM, first compound 0.316 µM): 0.52%
- viability, T/C (second compound 3.16 µM, first compound 1 µM): 0.29%
- viability, T/C (second compound 3.16 µM, first compound 3.16 µM): 0.29%
- viability, T/C (second compound 3.16 µM, first compound 10 µM): 0.34%
- viability, T/C (second compound 10 µM, first compound 0.0316 µM): 0.92%
- viability, T/C (second compound 10 µM, first compound 0.1 µM): 0.33%
- viability, T/C (second compound 10 µM, first compound 0.316 µM): 0.31%
- viability, T/C (second compound 10 µM, first compound 1 µM): 0.14%
- viability, T/C (second compound 10 µM, first compound 3.16 µM): 0.19%
- viability, T/C (second compound 10 µM, first compound 10 µM): 0.12%
